Patent publication US11447786B2, “Systems and methods for cellular reprogramming of a plant cell” (PIONEER HI-BRED INTERNATIONAL, INC., priority 2017, dated 2022)
Entries after “also recorded” stand apart in the source; their conditions may differ.

Legend:
Format in all cases: cell-based, maize
ATCC40520 microspores [1] = experiment: Microspore embryogenesis in ATCC40520 microspore culture with hemin, MCS/ELS phenotype scoring; settings: 1 μM hemin
Protocol: Following microspore isolation, ATCC40520 microspores (see U.S. Pat. No. 5,602,310 incorporated herein by reference in its entirety) were cultured in a petri dish in a 9% sucrose induction medium as a control or a 9% sucrose induction medium supplemented with a 1 μM final concentration of hemin (Sigma-Aldrich, catalog # H9039) at 28° C. under dark conditions.
(§1) Following microspore isolation, ATCC40520 microspores and EH, anelite inbred, that is known to be less responsive relative to the ATCC40520 genotype, were each individually cultured in a petri dish in a 9% sucrose induction medium as a control or a 9% sucrose induction medium supplemented with a 1 μM final concentration of hemin at 28° C. under dark conditions.
(§2) Microspore phenotypes were scored for each of ATCC40520 and EH after 21 days of treatment (+/− hemin). A multicellular structure (MCS) phenotype was scored when a unicellular-derived structure resulting from randomly oriented divisions within a surrounding, intact exine wall was observed. If the surrounding exine was ruptured and a release of cells was observed, then the response was scored as a proliferative embryo-like structure (ELS).

ATCC40520 microspores [2] = experiment: Gene expression analysis of embryo-like structures from control and hemin-treated ATCC40520 cultures; settings: 1 μM hemin, 8 days in vitro culture, vs control
Protocol: Following microspore isolation, ATCC40520 microspores (see U.S. Pat. No. 5,602,310 incorporated herein by reference in its entirety) were cultured in a petri dish in a 9% sucrose induction medium as a control or a 9% sucrose induction medium supplemented with a 1 μM final concentration of hemin (Sigma-Aldrich, catalog # H9039) at 28° C. under dark conditions. After 8 days of in vitro tissue culture, four biological replicates of proliferating embryo-like structures were sampled from each of the control and the hemin-treated ATCC40520 tissue cultures for embryogenesis induction and processed for gene expression analysis using methods known in the art (data not shown).

inbred EH microspores [3] = experiment: Microspore embryogenesis in inbred EH microspore culture with hemin, MCS/ELS phenotype scoring; settings: 1 μM hemin
Protocol: as §1, §2

isolated microspores [4] = experiment: Ex situ treatment of isolated microspores with GAMMA ZEIN-ZmWUS2-hexa histidine-tag protein; settings: vs microspores cultured without the protein
Protocol: GAMMA ZEIN-ZmWUS2-hexa histidine-tag protein expression and purification is performed using a heterologous expression system expressing a plasmid encoding a GAMMA ZEIN-ZmWUS2-hexa histidine-tag (SEQ ID NO:46) sequence transformed into DH10Bac cells to generate baculoviruses. Baculovirus-infected SF9 insect cells are incubated for 72 hours at 27° C. The infected insect cells are harvested by centrifugation. Purification of the recombinant GAMMA ZEIN-ZmWUS2-hexa histidine-tag protein (SEQ ID NO:47) is performed as described in EXAMPLE 3.

[5] = system: microspores isolated from a F1 hybrid tassel of an EHxGR genetic cross; experiment: Protein transfection of microspores with ZmWUS2-hexa histidine-tag protein with or without Pro-Ject reagent
Protocol: Transfection reagent preparation using the cationic lipid based Pro-Ject™ transfection reagent (Thermo Fisher Scientific catalog #89850) was performed by adding 250 μL of methanol to the tube containing the dried transfection reagent, vortexing for 30 seconds at top speed, and dispensing 10 μL of Pro-ject™ plus methanol to 1.5 mL Eppendorf tubes. The transfection reagent was evaporated from the tubes within a chemical fume hood for 4 hours drying time at room temperature and the tubes were stored the tubes at −20° C. until use. Upon use, 100 μL of isolation medium containing 50 ng of the purified ZmWUS2-hexa histidine-tag protein was added to each tube and 900 μL microspore culture medium was dispensed into each transfection tube to re-hydrate the transfection reagent and encapsulate the protein. The 1 mL volume of this solution was combined with a 1 mL volume of microspores isolated from a F1 hybrid tassel of an EHxGR genetic cross. The microspores were suspended in isolation medium and each 2 mL volume was dispensed into a well of a 24 well microtiter plate (Lab Safety Supply catalog #11L794). The isolation medium was further supplemented with bovine serum albumin, protease inhibitor and L-glutathione reduced, with or without the cationic lipid-based Pro-Ject™ transfection reagent, and with or with the ZmWUS2-hexa histidine-tag protein treatments (ZmWUS2-hexa histidine-tag protein buffer as a control for comparison to the ZmWUS2-hexa histidine-tag protein). Each plate was sealed with parafilm and incubated at 28° C. under dark conditions. […] After 18 days, all cells were collected and rinsed using 70 μm Fisherbrand™ cell strainer and evaluated for the activation of cellular reprogramming and the induction of microspore embryogenesis. Microspore viability was scored by counting plasmolyzed, collapsed cells (i.e. “non-viable”) and translucent, spherical cells corresponding to the original state (i.e. “viable”).

inbred EH microspores [6] = experiment: Ex situ treatment of isolated microspores with purified ZmWUS2-hexa histidine-tag protein
Protocol: WUSCHEL protein expression and purification was performed using a heterologous expression system expressing a plasmid encoding a ZmWUS2-hexa histidine-tag (SEQ ID NO:1) sequence transformed into DH10Bac cells (Thermo Fisher Scientific catalog #10361012) to generate baculoviruses. Baculovirus-infected SF9 insect cells (Thermo Fisher Scientific catalog #12552014) were incubated for 72 hours at 27° C. The infected insect cells were harvested by centrifugation. Purification of the recombinant ZmWUS2-hexa histidine-tag protein (SEQ ID NO:2) was performed using commercially available protein purification methods Following microspore isolation from inbred EH, ZmWUS2-hexa histidine-tag protein treatments were performed for each culture by combining 505 μL of a 4% sucrose induction media, 37.5 μL of molecular grade bovine serum albumin (BSA; 20 mg/ml) (Sigma-Aldrich catalog # B8667) and 7.5 μL of protease inhibitor (Sigma-Aldrich catalog # P9599) and with 250 μL of the purified recombinant ZmWUS2-hexa histidine-tag protein. After gently mixing, the solution was filter sterilized within a sterile environment using a 0.2 μm filter (Pall Corporation catalog #4612). Optionally, an isolation medium was buffered with L-glutathione reduced (Sigma-Aldrich catalog #G4251). […]

isolated microspores [7] = experiment: Microspore electroporation with ZmWUS2-hexa histidine-tag protein; settings: in combination with electroporation, vs no protein and no electroporation
Protocol: A Neon® Transfection System (Thermo Fisher Scientific catalog #MPK5000) and Neon® kit (Thermo Fisher Scientific catalog #MPK10025) is used per the manufacturer's instructions. The ex situ ZmWUS2-hexa histidine-tag protein treatment is prepared by mixing 12.5 μL of ZmWUS2-hexa histidine-tag protein (SEQ ID NO:2; 10 μg total, 0.8 μg/μL stock) with 12.5 μL Lipofectamin 3000 followed by 30 minutes incubation at room temperature. Sucrose is added to the resuspension buffer (buffer R) to a 0.4 M final concentration and filter sterilized. Isolated microspores are resuspended in a 2% (V/V) dimethyl sulfoxide (DMSO)/9% suscrose induction medium solution and incubated for 15 minutes at room temperatures, the microspores are pelleted, and the supernatant is removed. The microspores are washed three times with phosphate buffered saline (PBS; Gibco™ 10010023), resuspended in Electrolytic Buffer E (Thermo Fisher Scientific catalog #MPK5000) and mixed with the ZmWUS2-hexa histidine-tag protein/Lipofectamine 3000 solution followed by room temperature incubation for 10 minutes and then incubation on ice for 10 minutes. DMSO-mediated electroporation was used to increase ZmWUS2-hexa histidine-tag protein uptake into isolated microspores through multiple pulse conditions. […]

[8] = 21 days, vs control EH microspores

Molecule: hemin
- cellular proliferation and development of embryo-like structures (ELS) (ATCC40520 microspores [1]; 9% sucrose induction medium, 21 days, vs control): increased cellular proliferation and the development of embryo-like structures (ELS)
- quality of the embryo-like structures (proportion of spherical vs non-spherical embryoids) (ATCC40520 microspores [1]; 21 days): improved the quality of the embryo-like structures
- number of ELS in responsive cultures (ATCC40520 microspores [1]; after 21 days of treatment (+/- hemin)): approximately doubled
- expression of embryogenic transcripts (ATCC40520 microspores [2]): increased expression of embryogenic transcripts
- expression of pollen associated transcripts (ATCC40520 microspores [2]): decreased expression of pollen associated transcripts
- cellular proliferation in responsive cultures (inbred EH microspores [3]; 21 days of culture, vs control): increased cellular proliferation
- percentage of microspores scored with the ELS phenotype (inbred EH microspores [3]; [8]): increased
- percentage of microspores scored with the MCS phenotype (inbred EH microspores [3]; [8]): increased

B1: GAMMA ZEIN-ZmWUS2-hexa histidine-tag protein: Gamma-zein cell penetrating peptide WUSCHEL hexahistidine-tagged translational fusion protein (SEQ ID NO:47) (protein)
chain: VRLPPPVRLPPPLVRPPPLHHHHHHMAANAGGGGAGGGSGSGSVAAPAVCRPSGSRWTPTPEQIRMLKELYYGCGIRSPSSEQIQRITAMLRQHGKIEGKNVFYWFQNHKARERQKRRLTSLDVNVPAAGAADATTSQLGVLSLSSPPPSGAAPPSPTLGFYAAGNGGGSAVLLDTSSDWGSSGAAMATETCFLQDYMGVTDTGSSSQWPRFSSSDTIMAAAAARAATTRAPETLPLFPTCGDDGGSGSSSYLPFWGAASTTAGATSSVAIQQQHQLQEQYSFYSNSNSTQLAGTGNQDVSATAAAAAALELSLSSWCSPYPAAGSMGHHHHHH
modifications: WUS-HISTAG-GZCPP protein sequence
- microspore responsiveness and embryogenesis induction (isolated microspores [4]): improved microspore responsiveness and embryogenesis induction

B2: ZmWUS2-hexa histidine-tag protein: Purified recombinant Zea mays WUSCHEL2 hexahistidine-tagged protein (SEQ ID NO:2) from baculovirus-infected SF9 insect cells (protein)
chain: MAANAGGGGAGGGSGSGSVAAPAVCRPSGSRWTPTPEQIRMLKELYYGCGIRSPSSEQIQRITAMLRQHGKIEGKNVFYWFQNHKARERQKRRLTSLDVNVPAAGAADATTSQLGVLSLSSPPPSGAAPPSPTLGFYAAGNGGGSAVLLDTSSDWGSSGAAMATETCFLQDYMGVTDTGSSSQWPRFSSSDTIMAAAAARAATTRAPETLPLFPTCGDDGGSGSSSYLPFWGAASTTAGATSSVAIQQQHQLQEQYSFYSNSNSTQLAGTGNQDVSATAAAAAALELSLSSWCSPYPAAGSMGHHHHHH
modifications: hexahistidine tag
- improvement in cell viability ([5]; 72 hours post-isolation, 4% sucrose liquid induction medium, on average): 5.1 fold
- cell proliferation / activation of cellular reprogramming and induction of microspore embryogenesis ([5]; combined with cationic lipid-based Pro-Ject transfection reagent, 18 days): cell proliferation was seen
- cell viability after 18 days of culture ([5]; without transfection reagent, vs control without protein): fewer cells were viable in the control treatment
- microspore responsiveness and embryogenesis induction (inbred EH microspores [6]; recalcitrant elite inbred, 4% sucrose induction media, vs culture without protein): improved microspore responsiveness and embryogenesis induction
- embryoid development (morphology) (inbred EH microspores [6]; wild type microspores treated with purified protein): revealed a suspensor with root hairs; also recorded: A microspore-derived embryo with a developed radicle and root hairs was observed
- microspore responsiveness and embryogenesis induction (isolated microspores [7]): improved microspore responsiveness and embryogenesis induction
